The text below walks through data of US20160282364A1, “ASSAY FOR INSULIN-DEGRADING ENZYME (IDE) INHIBITORS” (PRESIDENT AND FELLOWS OF HARVARD COLLEGE, priority 2013, published 2016).

Molecules are shown by their SMILES. Entries after “also recorded” stand apart in the source; their conditions may differ.

Data set [1] can be described thus: Plasma stability (1 h incubation). It is filed as in vitro ADME. To be noted: after 1 h.
The subject of a further data set is C57BL/6J mice. Nature of the data set: Tolerability of inhibitor doses in mice. Format: in vivo. Particulars: 80 mg/kg lean, 60 mg/kg DIO mice, i.p. The source says: In vivo studies, general information. Wild-type C57BL/6J and diet-induced obese (DIO) C57BL/6J age-matched male adult mice were purchased from Jackson Laboratories. The age range was 13 to 15 weeks for lean mice, and 24 to 26 weeks for DIO mice. All animals were individually housed on a 14-h light, 10-h dark schedule at the Biology Research Infrastructure (BRI), Harvard University. Cage enrichment included cotton bedding and a red plastic hut. Water and food were available ad libitum, consisting respectively of normal chow (Prolab® RHM 3000) or high-fat diet (60 kcal % fat, D12492, Research Diets Inc.). All animal care and experimental procedures were in accordance with the standing committee on the Use of Animals in Research and Teaching at Harvard University, the guidelines and rules established by the Faculty of Arts and Sciences' Institutional Animal Care and Use Committee (IACUC), and the National Institutes of Health Guidelines for the Humane Treatment of Laboratory Animals. Glucagon-receptor knock-out (GCGR^−/−) mice were housed with a 14-h light and 10-h dark schedule and treated in accordance with the guidelines and rules approved by the IACUC at Albert Einstein College of Medicine, NY. Power analysis to determine animal cohort numbers was based on preliminary results and literature precedent, usually requiring between 5 and 8 animals per group. […]

For another data set, the system named is GCGR−/− mice. Description: Glucose tolerance tests in glucagon receptor knockout mice. Format: in vivo, mouse. To be noted: 80 mg/kg. The source says:
In vivo studies, general information. Wild-type C57BL/6J and diet-induced obese (DIO) C57BL/6J age-matched male adult mice were purchased from Jackson Laboratories. The age range was 13 to 15 weeks for lean mice, and 24 to 26 weeks for DIO mice. All animals were individually housed on a 14-h light, 10-h dark schedule at the Biology Research Infrastructure (BRI), Harvard University. Cage enrichment included cotton bedding and a red plastic hut. Water and food were available ad libitum, consisting respectively of normal chow (Prolab® RHM 3000) or high-fat diet (60 kcal % fat, D12492, Research Diets Inc.). […]
(§1) Glucose tolerance tests GTT and blood glucose measurements. […] Blood glucose was measured using AccuCheck® meters (Aviva) from blood droplets obtained from a small nick at the tip of the tail, at timepoints −45, 0, 15, 30, 45, 60, 90 and 120 min with reference to the time of glucose injection. The area of the blood glucose response profile curve corresponding to each animal was calculated by the trapezoid method^17, using as reference each individual baseline blood glucose measurement prior to glucose administration (t=0). […]

Data set [2] relates to lean and DIO C57BL/6J mice. Description: Oral glucose tolerance test (OGTT). It is filed as in vivo, mouse. Particulars: lean (80 mg/kg) and DIO (60 mg/kg) mice, single i.p. dose 30 min before glucose gavage 3.0 g/kg, vs vehicle. Here is the method: Wild-type lean C57BL/6J and diet-induced obese (DIO) C57BL/6J age-matched male mice were purchased from Jackson Laboratories, and used at ages 14-16, and 24-26 weeks respectively (>20 weeks of high-fat diet for the DIO mice). GCGR^/ mice were bred from heterozygous mice and used between 11 and 17 weeks. […] Blood glucose was measured from tail nicks using AccuCheck (Aviva) meters.
In vivo studies, general information. Wild-type C57BL/6J and diet-induced obese (DIO) C57BL/6J age-matched male adult mice were purchased from Jackson Laboratories. The age range was 13 to 15 weeks for lean mice, and 24 to 26 weeks for DIO mice. All animals were individually housed on a 14-h light, 10-h dark schedule at the Biology Research Infrastructure (BRI), Harvard University. Cage enrichment included cotton bedding and a red plastic hut. […]
as §1

The target in another data set is IDE (R&D) (Homo sapiens, UniProt P14735). Nature of the data set: Homogeneous time-resolved fluorescence (HTRF) insulin degradation assay. It is filed as biochemical. Also noted: recombinant human IDE42-1019 (R&D Systems); purchased R&D. The protocol: (§2) All data points and error bars represent mean±SEM. Significance tests were performed using two-tail Student's t-test, and significance levels shown in the figures are p<0.05 (*) or p<0.01 (**) versus the vehicle-only control group. The in vitro selection of the DNA-templated macrocycle libraryl^16,17 used 20 μg His6-tagged mouse IDE immobilized on cobalt magnetic beads (Dynabeads, Invitrogen). IDE proteolytic activity was assayed with fluorogenic peptide Mca-[…](Dnp)-OH (R&D). IDE inhibition was confirmed using an anti-insulin antibody time-resolved FRET assay (Cysbio), and using an LCMS assay for CGRP cleavage fragments CGRP1-17 and CGRP18-37 in plasma^18. […] IDE degradation assays for insulin and calcitonin-gene related peptide (CGRP). […] Fluorescence was measured using a Tecan Safire 2 plate reader (excitation=320 nm, emission=665 and 620 nm, lag time=60 μs) according the assay manufacturer's recommendations. Degradation of CGRP by endogenous IDE in mouse plasma was analyzed by LC-MS for the formation of CGRP1-17 and CGRP18-37 as previously reported^6.

For data set [3], the target named is T1, endogenous IDE in mouse plasma (Mus musculus, UniProt Q9JHR7, L174F/R633G/V509I/Y332H).
T1 construct: endogenous IDE in mouse plasma; from tissue; host or cells: mouse plasma
Description: LC-MS assay for ex vivo degradation of CGRP in mouse plasma. Format: biochemical. Particulars: CGRP 10 μM. The protocol: as §2

Chain of IDE (R&D) (P14735 42-1019): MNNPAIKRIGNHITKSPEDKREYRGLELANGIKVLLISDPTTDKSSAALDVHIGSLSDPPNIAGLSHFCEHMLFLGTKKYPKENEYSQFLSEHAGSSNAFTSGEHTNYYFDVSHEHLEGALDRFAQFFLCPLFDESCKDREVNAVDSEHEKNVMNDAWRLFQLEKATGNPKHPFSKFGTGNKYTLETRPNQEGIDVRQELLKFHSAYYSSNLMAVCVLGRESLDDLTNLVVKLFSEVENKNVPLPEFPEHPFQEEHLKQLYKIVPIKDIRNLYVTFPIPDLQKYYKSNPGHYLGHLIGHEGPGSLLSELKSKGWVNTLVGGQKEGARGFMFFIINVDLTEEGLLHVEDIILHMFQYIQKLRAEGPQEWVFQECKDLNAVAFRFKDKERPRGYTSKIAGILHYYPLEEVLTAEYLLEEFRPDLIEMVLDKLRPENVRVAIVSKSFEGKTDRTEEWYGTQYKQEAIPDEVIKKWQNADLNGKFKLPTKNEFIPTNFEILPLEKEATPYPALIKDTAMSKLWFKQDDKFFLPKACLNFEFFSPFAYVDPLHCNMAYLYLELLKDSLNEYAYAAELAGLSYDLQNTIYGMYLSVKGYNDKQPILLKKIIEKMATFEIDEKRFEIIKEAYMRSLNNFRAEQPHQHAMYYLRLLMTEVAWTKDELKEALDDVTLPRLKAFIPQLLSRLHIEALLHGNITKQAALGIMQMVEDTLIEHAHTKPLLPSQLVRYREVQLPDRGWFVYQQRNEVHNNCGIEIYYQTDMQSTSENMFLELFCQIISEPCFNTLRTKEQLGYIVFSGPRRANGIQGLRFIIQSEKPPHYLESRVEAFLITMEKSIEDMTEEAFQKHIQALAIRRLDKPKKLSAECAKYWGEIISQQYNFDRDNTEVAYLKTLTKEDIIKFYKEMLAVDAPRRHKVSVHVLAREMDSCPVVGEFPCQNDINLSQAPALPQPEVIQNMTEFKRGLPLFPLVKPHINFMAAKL
T1 sequence (Q9JHR7 whole entry L174F/Y332H/V509I/R633G): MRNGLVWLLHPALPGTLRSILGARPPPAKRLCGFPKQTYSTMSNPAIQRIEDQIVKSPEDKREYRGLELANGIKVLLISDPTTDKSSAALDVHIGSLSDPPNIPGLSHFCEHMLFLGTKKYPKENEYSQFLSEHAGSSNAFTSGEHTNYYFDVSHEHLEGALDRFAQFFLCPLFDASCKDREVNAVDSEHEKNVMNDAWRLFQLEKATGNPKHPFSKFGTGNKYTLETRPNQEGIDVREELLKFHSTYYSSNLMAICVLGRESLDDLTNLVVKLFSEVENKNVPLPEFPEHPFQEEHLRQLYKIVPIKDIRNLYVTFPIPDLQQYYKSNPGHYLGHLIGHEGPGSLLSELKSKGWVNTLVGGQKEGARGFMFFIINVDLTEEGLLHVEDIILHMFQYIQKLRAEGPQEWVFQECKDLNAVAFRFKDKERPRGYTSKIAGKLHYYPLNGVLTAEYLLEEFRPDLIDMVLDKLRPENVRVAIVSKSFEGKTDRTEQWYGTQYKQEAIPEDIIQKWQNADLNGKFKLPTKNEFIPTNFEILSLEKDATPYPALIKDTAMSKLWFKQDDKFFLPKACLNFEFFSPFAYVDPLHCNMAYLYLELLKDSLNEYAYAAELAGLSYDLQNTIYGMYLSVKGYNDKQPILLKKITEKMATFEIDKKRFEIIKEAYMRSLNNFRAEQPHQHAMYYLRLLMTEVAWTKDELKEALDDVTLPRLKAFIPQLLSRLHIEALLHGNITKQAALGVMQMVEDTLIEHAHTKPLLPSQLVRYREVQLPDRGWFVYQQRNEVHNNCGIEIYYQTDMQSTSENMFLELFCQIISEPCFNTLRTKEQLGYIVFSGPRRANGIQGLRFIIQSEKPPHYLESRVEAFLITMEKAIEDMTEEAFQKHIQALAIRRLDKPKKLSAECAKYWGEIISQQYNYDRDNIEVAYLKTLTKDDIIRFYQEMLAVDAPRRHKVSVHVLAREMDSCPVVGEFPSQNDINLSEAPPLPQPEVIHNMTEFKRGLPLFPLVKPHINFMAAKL

As to `NCCCC[C@@H]1NC(=O)/C=C/C(=O)N[C@H](C(N)=O)CCCCNC(=O)[C@@H](Cc2ccc(C(=O)c3ccccc3)cc2)NC(=O)[C@H](CC2CCCCC2)NC1=O` [Compound 6bK], the “remaining after incubation with plasma” value in data set [1] was found to be 74%. For the same compound, in the data set on C57BL/6J mice, the tolerability result is reported as “well tolerated”. Also, the “response to i.p. injected glucose” value with GCGR−/− mice (6bK vs vehicle) is listed as “virtually identical”. For the same compound, the figures for the oral glucose tolerance result (in the data set with GCGR−/− mice (vs vehicle); in data set [2]) were “improvement” and “significantly improved; also recorded: improved glucose tolerance”, respectively.
For the compound `NC(=O)CCC1NC(=O)C=CC(=O)NC(C(N)=O)CCCCNC(=O)C(Cc2ccc(C(=O)c3ccccc3)cc2)NC(=O)C(CC2CCCCC2)NC1=O` (stereo not shown) [Compound 6b], the “inhibition of IDE proteolytic activity, insulin immunoassay” value at IDE (R&D) is “confirmed”. The “inhibition of IDE proteolytic activity, calcitonin-gene related peptide LC-MS assay” value in data set [3] was “confirmed”.
